In ChEMBL document CHEMBL1131734, “Synthesis of polyamine derivatives for the preparation of affinity chromatography columns for the search of new Trypanosoma cruzi targets” (Bioorg Med Chem Lett, 1999) one finds IC50 and inhibition data, which are given here for 9 molecules.

The test system of experiment [1] is Trypanosoma cruzi. Put plainly: Inhibitory activity against Trypanosoma cruzi trypomastigotes. The format is functional, organism-based.
A further experiment concerns the target Trypanothione reductase (Trypanosoma cruzi, UniProt P28593). The experiment can be described thus: Inhibitory activity against trypanothione reductase in Trypanosoma cruzi trypomastigotes; NA is not active.
The subject of experiment [2] is Trypanosoma cruzi. The experiment can be described thus: Inhibitory activity against Trypanosoma cruzi trypomastigotes at concentration 12.5 uM. It counts as functional.

Sequence of Trypanothione reductase (P28593 whole entry): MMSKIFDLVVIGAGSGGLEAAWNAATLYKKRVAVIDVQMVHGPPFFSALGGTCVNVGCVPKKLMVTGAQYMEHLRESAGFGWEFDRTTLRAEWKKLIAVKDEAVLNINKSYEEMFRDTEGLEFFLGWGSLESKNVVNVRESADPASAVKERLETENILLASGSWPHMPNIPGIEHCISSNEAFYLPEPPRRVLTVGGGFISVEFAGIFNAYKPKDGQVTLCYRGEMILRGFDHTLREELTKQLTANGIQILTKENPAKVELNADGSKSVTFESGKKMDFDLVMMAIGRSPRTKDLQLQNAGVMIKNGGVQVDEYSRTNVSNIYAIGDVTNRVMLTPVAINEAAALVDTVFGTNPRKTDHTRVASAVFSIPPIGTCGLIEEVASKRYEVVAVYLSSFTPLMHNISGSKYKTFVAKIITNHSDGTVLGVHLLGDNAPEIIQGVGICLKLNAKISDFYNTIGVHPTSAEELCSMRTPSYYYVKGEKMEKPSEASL

Take `NCCCCC(N)C(=O)NCC1CCC(CNCCCN2CCN(CCCNCC3CCC(CNC(=O)C(N)CCCCN)CC3)CC2)CC1` (centres undefined): the IC50 (as a rule, the concentration that inhibits the measured activity by half) in the experiment on Trypanosoma cruzi [1] was 5 µM; against Trypanothione reductase, “Not Active”.
As to `NCCCCC(N)C(=O)NCC1CCC(CNCCCN2CCN(CCCNCC3CCCCC3)CC2)CC1` (centres undefined), the IC50 in the experiment with Trypanosoma cruzi [1] is 5 µM; on Trypanothione reductase, “Not Active”.
For `NCCCN1CCN(CCCNCC2CCCCC2)CC1`, the IC50 in the experiment with Trypanosoma cruzi [1] is 5 µM; at Trypanothione reductase, “Not Active”.
In the case of `NCCCN1CCN(CCCN2C(=O)c3ccccc3C2=O)CC1`, the values for the concentration for half-maximal inhibition (IC50) in the experiment on Trypanosoma cruzi [1] and on Trypanothione reductase were 5 µM and “Not Active”, respectively.
For the molecule `C1CCC(CNCCCN2CCN(CCCNCC3CCCCC3)CC2)CC1`, the IC50 in the experiment with Trypanosoma cruzi [1] is 5 µM; against Trypanothione reductase, “Not Active”. Further, in the experiment on Trypanosoma cruzi [2], testing at 12.5 µM gave an inhibition of 90%.
As for `CC(C)(C)OC(=O)NCCCCC(NC(=O)OC(C)(C)C)C(=O)NCC1CCC(CNCCCN2CCN(CCCNCC3CCC(CNC(=O)C(CCCCNC(=O)OC(C)(C)C)NC(=O)OC(C)(C)C)CC3)CC2)CC1` (centres undefined), the IC50 is 5 µM with Trypanosoma cruzi [1] and “Not Active” against Trypanothione reductase.
On the same counts, the results for `O=C1c2ccccc2C(=O)N1CCCN1CCN(CCCNCC2CCCCC2)CC1` are 5 µM and “Not Active”.
On the same counts, the results for `NCCCN1CCN(CCCN)CC1` are 5 µM and “Not Active”.
On the same counts, the results for `CC(C)(C)OC(=O)NCCCCC(NC(=O)OC(C)(C)C)C(=O)NCC1CCC(CNCCCN2CCN(CCCNCC3CCCCC3)CC2)CC1` (centres undefined) are 5 µM and “Not Active”.
